Experimental data reported in patent US9895338B1, “Cobalt-polypyridyl complex for treatment of cancer, a pharmaceutical composition and a kit comprising it” (Macau University of Science and Technology, priority 2016, dated 2018).

Tests used:
MCF-7 (breast cancer) = experiment: MTT cytotoxicity assay, MCF-7; type: cell-based; settings: MCF-7, MTT, 72 h
Procedure: (§1) All prepared cobalt-polypyridyl complexes were dissolved in DMSO at a final concentration of 50 mmol/L and stored at −20° C. before use. Cytotoxicity was assessed by using the 3-(4,5-dimethylthiazol-2-yl)-2,5-diphenyltetrazolium bromide (MTT) (5.0 mg/ml) assay as previously described (Wong, V. K. et al., Cell Death Dis, 2013, 4, e720). Briefly, 4×10^3 cells per well were seeded in 96-well plates before drug treatments. After overnight culture, the cells were then exposed to different concentrations of selected compounds (0.039-100 μmol/L) for 72 h. Cells without drug treatment were used as control. Subsequently, MTT (10 μL) solution was added to each well and incubated at 37° C. for 4 h followed by the addition of 100 μL solubilization buffer (10% SDS in 0.01 mol/L HCl) and overnight incubation. A570 nm was then determined in each well on the next day. The percentage of cell viability was calculated using the following formula: Cell viability (%)=Atreated/Acontrol×100. Data were obtained from three independent experiments. Cells include HeLa cells (cervical cancer), MCF-7 (breast cancer), H1299, H1975, A549 and LLC-1 (lung cancer), HepG2 and Hep3B (liver cancer) and LO2 (normal human hepatocytes).

H1299 (lung cancer) = experiment: MTT cytotoxicity assay, H1299; type: cell-based, human; settings: 72 h
Procedure: as §1

H1975 (lung cancer) = experiment: MTT cytotoxicity assay, H1975; type: cell-based; settings: 72 h
Procedure: as §1

HepG2 (liver cancer) = experiment: MTT cytotoxicity assay, HepG2; type: cell-based; settings: 72 h
Procedure: as §1

[1] = test system: LO2 (normal human hepatocytes); experiment: MTT cytotoxicity assay, LO2; type: cell-based; settings: 72 h
Procedure: as §1

[2] = test system: cisplatin-sensitive SGC-7901 gastric cancer cells; experiment: MTT cytotoxicity, cisplatin-sensitive SGC-7901; type: cell-based; settings: SGC-7901, MTT, 72 h
Procedure: as §1, with “experiments.” for “experiments. Cells include HeLa cells (cervical cancer), MCF-7 (breast cancer), H1299, H1975, A549 and LLC-1 (lung cancer), HepG2 and Hep3B (liver cancer) and LO2 (normal human hepatocytes).”

[3] = test system: cisplatin-resistant SGC-7901 gastric cancer cells; experiment: MTT cytotoxicity, cisplatin-resistant SGC-7901; type: cell-based
Procedure: as §1, with “experiments.” for “experiments. Cells include HeLa cells (cervical cancer), MCF-7 (breast cancer), H1299, H1975, A549 and LLC-1 (lung cancer), HepG2 and Hep3B (liver cancer) and LO2 (normal human hepatocytes).”
All cells were obtained from the American Type Culture Collection (Rockville, Md., USA) unless otherwise specified. Immortalized wild-type and Atg7-deficient mouse embryonic fibroblasts (MEFs) were provided by Professor Masaaki Komatsu (Juntendo University, School of Medicine, Japan). Taxol-resistant types of A549, MCF-7, HCT-8 cancer cells, cisplatin-resistant SGC7901 cancer cells were purchased from KeyGEN BioTECH, China.

[4] = test system: OV2008/C13 cervical cancer cells; experiment: MTT cytotoxicity, OV2008/C13 (cisplatin-resistant); type: cell-based
Procedure: as §1, with “experiments.” for “experiments. Cells include HeLa cells (cervical cancer), MCF-7 (breast cancer), H1299, H1975, A549 and LLC-1 (lung cancer), HepG2 and Hep3B (liver cancer) and LO2 (normal human hepatocytes).”
(§2) Cisplatin-sensitive or -resistant A2780, OV2008 and C13 cancer cells were provided by Prof. Benjamin Tsang (Department of Obstetrics and Gynecology and Department of Cellular and Molecular Medicine, University of Ottawa, Canada). HCT116 p53^+/+ and p53^−/− isogenic human colon cancer cells were provided by Professor Bert Vogelstein (Ludwig Center at Johns Hopkins, Howard Hughes Medical Institute, USA). All media were supplemented with 10% fetal bovine serum and the antibiotics penicillin (50 U/ml) and streptomycin (50 μg/ml; Invitrogen, Paisley, Scotland, UK). All cell cultures were incubated at 37° C. in a 5% humidified CO2 incubator.

[5] = test system: HCT116 p53^+/+ colon cancer cells; experiment: MTT cytotoxicity, HCT116 p53+/+; type: cell-based, human; settings: 72 h
Procedure: as §1, with “experiments.” for “experiments. Cells include HeLa cells (cervical cancer), MCF-7 (breast cancer), H1299, H1975, A549 and LLC-1 (lung cancer), HepG2 and Hep3B (liver cancer) and LO2 (normal human hepatocytes).”
as §2

[6] = test system: LC3-II protein conversion; experiment: Western blotting of LC3-I to LC3-II conversion; type: cell-based; settings: Western blot; complex at 10 μM and 20 μM
Procedure: After drug treatment, adherent and floating cells were lysed with RIPA lysis buffer. Protein concentrations were determined using the Bio-Rad protein assay (Bio-Rad Laboratories, Inc., Hercules, Calif., USA). The cell lysates of samples were subjected to electrophoresis on SDS polyacrylamide gels and transferred to Hybond enhanced chemiluminescence nitrocellulose membranes (Amersham Biosciences, Piscataway, N.J.), which were then blocked with 5% non-fat dry milk protein for 1 h. Membranes were then incubated with the indicated primary antibodies overnight at 4° C. The binding of the antibody was visualized by peroxidase-coupled secondary antibody using the ECL Western Blotting Detection Reagents (Invitrogen, Paisley, Scotland, UK). Band intensities were quantified by using the software ImageJ (NIH, Bethesda, Md., USA).

[7] = Body weight in mouse lung cancer xenograft model; type: in vivo; settings: IP 40 mg/kg/day, tumor-bearing mice
Description: The mice were maintained under specific pathogen-free condition in a 12-h light-dark cycle. Experimental conditions were followed in accordance to the “Institutional AnimalCare and User Committee guidelines” of the Macau University of Science and Technology. Xenograft mouse model was constructed as previously described (Wong, V. K. et al., Oncotarget, 2016, 7, 9907-9924). LLC-1 Lewis lung cancer cells (1×10^6 cells) were subcutaneously injected in the right dorsal region of the mice. After tumors grew to about 100 mm^3, the mice were randomly divided into 3 groups: 1) the control group, 2) 40 mg/kg cobalt-polypyridyl complex of Formula (IV) group, and 3) 40 mg/kg cobalt-polypyridyl complex of Formula (IV) as chloride, also referenced as (IV)-Cl (water soluble form) group. The cobalt-polypyridyl complex of Formula (IV) was dissolved in 100 μL buffer (PEG400:EtOH:ddH2O=6:1:3), whereas (IV)-Cl (water soluble form) was dissolved in ddH2O. The complexes were then intraperitoneal injected in mice every day. The body weight of each mouse was recorded with the tumor volume determined by Vernier caliper using the formula of L×W^2×0.52, where L is the longest diameter of tumor and W is the shortest diameter of tumor. Mice with tumor implants were sacrificed after 10 days when the tumor size of vehicle control group reached above 1000 mm^3 due to animal ethical issue.

[8] = test system: endogenous LC3-II puncta formation in HeLa cancer cells; settings: HeLa, 5, 10, 20 μM
Procedure: The detection of endogenous LC3 was conducted using immunofluorescence staining method as described below. HeLa cancer cells treated with the cobalt-polypyridyl complex of Formula (IV) (with PF6^− as counterion) on cover slips were fixed with 4% paraformaldehyde (Sigma) for 20 min at room temperature and then rinsed with PBS. Coverslips were immersed in methanol at room temperature for 2 min. After washing with PBS, the cells were then incubated with anti-LC3 (1:200) in TBST (100 mM TrisHCl, pH 7.5, 150 mM NaCl, 0.05% Tween 20 and 5% BSA) overnight at 4° C. […] The coverslips were then mounted with FluorSave™ mounting media (Calbiochem, San Diego, Calif., USA) for fluorescence imaging and localization of LC3 autophagosomes were captured under the API Delta Vision Live-cell Imaging System (Applied Precision Inc., GE Healthcare Company, Washington, USA). To quantify autophagy, guidelines of autophagy quantitation were followed (Klionsky, D. J. et al., Autophagy, 2016, 12, 1-222). The percentage of cells with autophagic induction was calculated by the number of the cells with increased formation of punctate LC3 fluorescence dots (≧10 dots/cell) over the total number of immunofluorescence-positive cells in the same field. A minimum of 1000 cells from randomly selected fields were scored.

For `Cc1ccnc(-c2cc(C)ccn2)c1.Cc1ccnc(-c2cc(C)ccn2)c1.Cc1ccnc(-c2cc(C)ccn2)c1.F[P-](F)(F)(F)(F)F.F[P-](F)(F)(F)(F)F.F[P-](F)(F)(F)(F)F.[Co+3]` [complex (IV), [Co^III(4,4′-Me2-Bpy)3.](PF6)3], the IC50 (MCF-7 (breast cancer)) was 6.03 µM, the IC50 (H1299 (lung cancer)) was 2840 nM and the IC50 (H1975 (lung cancer)) was 8.84 µM. For the same compound, the IC50 (HepG2 (liver cancer)) was 5.44 µM, the IC50 [1] was 13.2 µM and the IC50 [2] was 11.1 µM. For the same compound, the IC50 ([3]; SGC-7901, MTT, 72 h) was 12.6 µM, the “Resistant Factor” value ([3]; SGC-7901, cisplatin-resistant over cisplatin-sensitive) was 1.14 and the IC50 ([4]; OV2008/C13, MTT, 72 h) was 7.59 µM. The “Resistant Factor” value ([4]; OV2008/C13 over OV2008) was 1.0, the IC50 [5] was 15.4 µM and the “LC3-I to LC3-II protein conversion” value [6] was “dose-dependently increased the LC3-II protein conversion”. For the same compound, the “reduction in body weight” value [7] was “no significant reduction in body weight” and the “endogenous LC3-II puncta formation (autophagy induction)” value [8] was “induce autophagy in dose-dependent manner”.
